Consider eight compounds from article PMC6968640, “Development of potent reversible selective inhibitors of butyrylcholinesterase as fluorescent probes” (Journal of Enzyme Inhibition and Medicinal Chemistry, 2020).

A word on the IC50: it is the midpoint of a concentration-inhibition curve.

One data set concerns the target huAChE (Homo sapiens, UniProt P22303). The experiment in a line: Inhibition of huAChE, method of Ellman. The following applies: compound at 100 µM; read-out: huAChE residual activity (RA). Format: biochemical. The procedure:
(§1) The inhibitory potencies of these probes against cholinesterases (i.e. huAChE, murine AChE [mAChE] and huBChE) were determined using the method of Ellman[18], as previously described. The assays were carried out at room temperature in 100 mM phosphate buffer, pH 8.0, containing 333 µM Ellman reagent (5,5′-dithiobis(2-nitrobenzoic acid); DTNB), 500 µM substrate (huAChE/mAChE: acetylthiocholine; huBChE: butyrylthiocholine iodide [BSCh]) and huAChE/mAChE or huBChE (50 pM, 1 nM, respectively). […] Formation of the yellow product was followed for 1 min as the change in the absorbance at 412 nm, using a microplate reader (Synerg H4; BioTek Instruments, Inc., USA). For screening for inhibitory activities, the compounds were assayed at 100 µM, in triplicate. The initial velocities in the absence (v0) and presence (vi) of the test compounds were calculated. […].
(§2) For the IC50 measurements, serial dilutions were prepared for the compounds with RAs <50% at 100 µM. The IC50 values were calculated by plotting the RAs against the compound concentration according to a four-parameter logistic function, using the GraphPad Prism 8 software (GraphPad Software, USA). All of the measurements were repeated twice, each of which was in triplicate.
On the technique in general: DTNB colorimetry detects thiols as they appear.

Another data set has as its target mAChE (Mus musculus, UniProt P21836). The experiment in a line: Inhibition of mAChE, method of Ellman. The format is biochemical. The following applies: compound at 100 µM; read-out: mAChE residual activity (RA). How it is done:
as §1, §2

In data set [1] the target is T1, hBChE (Homo sapiens, UniProt P06276). The experiment in a line: Inhibition of huBChE, method of Ellman. The format is biochemical. The conditions noted are these: for remaining activity at 100 µM: compound at 100 µM, read-out: huBChE residual activity (RA); for IC50: 500 µM butyrylthiocholine iodide, 1 nM enzyme, pH 8.0, room temperature. The procedure: as §1, §2
T1 sequence (P06276 29-602): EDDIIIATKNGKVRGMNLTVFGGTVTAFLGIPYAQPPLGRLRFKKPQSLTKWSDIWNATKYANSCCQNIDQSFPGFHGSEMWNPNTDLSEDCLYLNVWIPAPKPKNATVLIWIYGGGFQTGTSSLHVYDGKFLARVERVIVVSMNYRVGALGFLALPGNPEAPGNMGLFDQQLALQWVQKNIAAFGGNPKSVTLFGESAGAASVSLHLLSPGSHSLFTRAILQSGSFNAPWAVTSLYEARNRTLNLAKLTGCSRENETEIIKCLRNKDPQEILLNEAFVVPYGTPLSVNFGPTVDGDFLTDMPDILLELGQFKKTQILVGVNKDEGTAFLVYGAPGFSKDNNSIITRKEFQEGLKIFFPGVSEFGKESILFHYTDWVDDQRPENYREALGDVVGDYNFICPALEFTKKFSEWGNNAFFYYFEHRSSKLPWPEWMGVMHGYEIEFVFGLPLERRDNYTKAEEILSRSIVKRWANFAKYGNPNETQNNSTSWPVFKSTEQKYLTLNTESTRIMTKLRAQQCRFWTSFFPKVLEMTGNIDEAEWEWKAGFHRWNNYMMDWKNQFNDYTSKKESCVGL

The next data set deals with T2, purified huBChE (Homo sapiens, UniProt P06276).
T2 construct: gift from Drs; O. Lockridge and L. Schopfer
T2 sequence (P06276 29-602): as above
The experiment in a line: Kinetic studies: progress curves of BSCh hydrolysis by purified huBChE. Format: biochemical. The following applies: 25 °C, 25 mM phosphate buffer pH 7.0, about 50 µM BSCh. How it is done: Purified huBChE was a generous gift from Drs. O. Lockridge and L. Schopfer. DTNB and BSCh were from Sigma. All other reagents used were of analytical grade. The experiments were carried out at 25 °C in 25 mM phosphate buffer, pH 7.0.
Three compounds (2C, 3A, 3B) were tested by measuring the progress curves for BSCh hydrolysis by huBChE in the absence and presence of each of these compounds at five to seven concentrations. Assays were carried out over 10 min, in a 0.6-ml cuvette, using the method of Ellman et al[18]. The compound concentrations used were: 2C, 0–1 µM; 3A, 0–200 µM; and 3B, 0–50 nM.
The concentration of purified huBChE, which was always the final addition to these assays, was ∼0.5 nM. The hydrolysis of 50 µM BSCh was followed until completion (in most cases), in the presence of 1 mM DTNB. Reaching the plateau was important to get a precise estimate of the actual added BSCh concentration. For the calculation, the molar absorption coefficient of […] was used. All of the measurements were performed using a conventional UV/Vis spectrophotometer (Lambda45; Perkin-Elmer). Due to the experimental manipulation, a dead time of 10 s was added to each measurement, and all progress curves were extrapolated accordingly prior to the analysis.
. This programme is designed to generate differential equations from drawn reaction schemes and subsequently to fit the coefficients of these equations according to least squares methodology to reproduce the experimental data using a numerical integration algorithm. For determination of the kinetics mechanisms and parameters, the van Slyke-Cullen single intermediate reaction scheme[23] for substrate hydrolysis by huBChE was combined with a reversible mixed inhibition mechanism (Figure 1). […]
Figure 1. Reaction scheme for the inhibition of BSCh hydrolysis by purified huBChE in the presence of DTNB by compounds 2C, 3A, and 3B. E, free enzyme; EA, acylated intermediate; S, substrate BSCh; P, all of the stoichiometrically released products (SCh-TNB, TNB^–); and I, compounds (inhibitors) 2C, 3A, and 3B. The symbols for the constants are: kcat (k1), catalytic constant for BSCh turnover; Km (k0), Michaelis constant; Kp = k3/k2, inhibition constant for binding of the product thiocholine-TNB; K1 = k5/k4 and K2 = k7/k6, dissociation constants for binding of the compounds to the free and acylated enzyme, respectively.

Data set [2] can be described thus: Solubility in aqueous buffers. The format is physicochemical.
The target in data set [3] is T1, hBChE. The experiment in a line: Fluorescence titration of hBChE with probe 2C. The conditions noted are these: in duplicate, fitted to sum of hyperbolic and linear equation; read-out: binding constant from fluorescence titration. How it is done:
4. Titration of hBChE with probe 2C
Figure S2. The fluorescence titration data, in duplicate, were simultaneously fitted to the sum of hyperbolic and linear equation. The determined binding constant for probe 2C was 5.5 +/- 1.6 nM, remarkably similar to the inhibition constant for the binding to the free enzyme (3.3 nM, see Table 1 in […]
(1 picture or pasted object on this page, not shown here)

In data set [4] the target is T1, hBChE. The experiment in a line: Fluorescence emission of probes on binding to huBChE. The following applies: probe 1 μM, huBChE 500 nM, buffer. An excerpt: The fluorescence properties of probes 2C and 3B were then examined when they were bound to huBChE. […] This mirrored the differences in the emission of probe 2C between the buffer solution and the organic solvents (Figure 6(B)). […]. Most probably this is due to unspecific binding to protein surface and titration study (see Supplemental material) confirms this. Future development of probe 2C should thus be orientated towards lowering the lipophilicity, which should, in turn, reduce unspecific binding.
Figure 7. […]

A further data set addresses T3, BChE in rat brain slices (Rattus norvegicus, UniProt Q9JKC1).
T3 construct: coronal cryosections (10 μm) of a rat brain; from tissue; host or cells: rat brain coronal cryosections at the level of the thalamus
The conditions noted are these: rat brain cryosections, AChE blocked with 0.1 mM BW-284C51.

Setting [5] is: read-out: K1, dissociation constant for binding to the free enzyme.
[6] abbreviates: read-out: K2, dissociation constant for binding to the acylated enzyme.

SMILES strings stand for the structures. Several values for one entry are separate records, joined by “and”; a condition that tells them apart may be missing. Identical values can stand only once. Entries after “also recorded” stand apart in the source; their conditions may differ. Like-named read-outs stand apart in the source and are kept apart here.

Sequence of huAChE (P22303 32-614): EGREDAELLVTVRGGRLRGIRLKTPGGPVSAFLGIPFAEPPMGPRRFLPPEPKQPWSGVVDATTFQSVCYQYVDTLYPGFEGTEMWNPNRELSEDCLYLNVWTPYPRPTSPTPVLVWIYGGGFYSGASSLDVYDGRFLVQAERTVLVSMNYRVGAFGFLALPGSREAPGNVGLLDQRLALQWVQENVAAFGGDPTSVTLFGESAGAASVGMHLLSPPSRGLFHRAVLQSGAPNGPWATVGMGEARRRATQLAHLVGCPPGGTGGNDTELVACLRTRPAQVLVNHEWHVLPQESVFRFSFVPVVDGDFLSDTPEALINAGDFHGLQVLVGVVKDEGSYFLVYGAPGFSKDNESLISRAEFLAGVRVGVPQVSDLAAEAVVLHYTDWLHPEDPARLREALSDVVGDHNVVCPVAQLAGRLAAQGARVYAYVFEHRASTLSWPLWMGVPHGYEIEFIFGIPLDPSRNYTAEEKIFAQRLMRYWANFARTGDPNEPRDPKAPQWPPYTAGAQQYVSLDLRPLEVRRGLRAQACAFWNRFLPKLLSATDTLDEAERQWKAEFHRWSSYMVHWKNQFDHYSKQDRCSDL
Sequence of mAChE (P21836 32-614): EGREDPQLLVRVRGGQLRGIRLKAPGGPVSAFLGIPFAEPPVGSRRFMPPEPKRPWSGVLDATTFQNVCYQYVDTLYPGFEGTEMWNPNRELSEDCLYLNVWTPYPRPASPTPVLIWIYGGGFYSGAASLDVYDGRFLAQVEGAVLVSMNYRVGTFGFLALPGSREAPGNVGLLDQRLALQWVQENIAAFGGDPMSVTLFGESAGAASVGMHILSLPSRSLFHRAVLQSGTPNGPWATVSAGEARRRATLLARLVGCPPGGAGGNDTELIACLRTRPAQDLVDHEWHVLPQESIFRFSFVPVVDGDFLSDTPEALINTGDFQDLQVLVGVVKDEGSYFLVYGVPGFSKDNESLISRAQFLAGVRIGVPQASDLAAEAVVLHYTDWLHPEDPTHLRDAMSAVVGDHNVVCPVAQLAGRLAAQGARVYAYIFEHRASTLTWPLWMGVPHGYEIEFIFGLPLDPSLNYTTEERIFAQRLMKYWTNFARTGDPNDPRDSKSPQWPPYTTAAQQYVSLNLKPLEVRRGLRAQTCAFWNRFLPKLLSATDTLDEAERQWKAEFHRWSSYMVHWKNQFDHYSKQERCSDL
T3 sequence (Q9JKC1 24-597): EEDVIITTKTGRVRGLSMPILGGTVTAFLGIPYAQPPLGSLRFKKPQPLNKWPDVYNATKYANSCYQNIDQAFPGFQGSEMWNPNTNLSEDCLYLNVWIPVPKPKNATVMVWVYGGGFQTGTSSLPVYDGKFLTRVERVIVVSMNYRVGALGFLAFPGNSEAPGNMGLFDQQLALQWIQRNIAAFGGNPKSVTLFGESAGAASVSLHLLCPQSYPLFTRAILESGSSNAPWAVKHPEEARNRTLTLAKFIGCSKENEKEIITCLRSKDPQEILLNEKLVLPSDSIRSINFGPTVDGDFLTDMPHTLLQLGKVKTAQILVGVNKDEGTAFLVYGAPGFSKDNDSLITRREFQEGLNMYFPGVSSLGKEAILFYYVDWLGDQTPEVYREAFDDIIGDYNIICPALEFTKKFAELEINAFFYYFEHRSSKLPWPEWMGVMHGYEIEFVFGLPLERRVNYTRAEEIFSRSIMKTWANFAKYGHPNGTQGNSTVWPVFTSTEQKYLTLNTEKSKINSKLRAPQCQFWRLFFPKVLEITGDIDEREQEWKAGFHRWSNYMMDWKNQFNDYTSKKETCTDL
Method for BChE in rat brain slices: Sections of rat brain with the highest BChE activity were selected and the modified Koelle − Karnovsky histochemical method was used to detect BChE activity[16]^,[40–42].
Histochemical staining for BChE activity of coronal cryosections (10 μm) of a rat brain from two regions (top/bottom row) at the level of the thalamus. All sections were processed with 0.1 mM BW-284C51 in Koelle solution, to completely block AChE activity. […] The relative optical density (ROD) pseudocolor scale for staining intensity of BChE activity is on the right.
BChE activity histochemical staining of coronal cryosections (10 μm) of a rat brain from
two regions at the level of the thalamus. All sections were processed with 0.1 mM BW-284C51 in
Koelle solution to completely block the AChE activity (A, B). For the inhibition experiment, the
relative optical density (ROD) pseudocolor scale for the staining intensity of BChE activity is shown
on the right. The photomicrographs show BChE -rich neurons in the laterodorsal thalamic nucleus

Turning to `CCN(CC)c1ccc2cc(C(=O)N(CCOC)CC3CCCN(Cc4ccccc4)C3)c(=O)oc2c1` (stereo not drawn) [1A], the remaining activity at 100 µM turned out to be 89% at huAChE and 92% at mAChE.
Turning to `CN(C)CCNC(=O)c1cc2ccc(N(C)C)cc2oc1=O` [2A], at hBChE [1], the “huBChE inhibition (in words)” value is “very low and unselective inhibition of BChE”; the remaining activity at 100 µM was determined as 57%. The remaining activity at 100 µM at huAChE was found to be 18%.
In the case of `CN(C)c1ccc2cc(C(=O)NCC[N+](C)(C)C)c(=O)oc2c1` [2B], on hBChE [1], the “huBChE inhibition (in words)” value is “very low and unselective inhibition of BChE”; the remaining activity at 100 µM is 54%. The remaining activity at 100 µM on huAChE was 25%.
Turning to `CCN(CC)c1ccc2cc(-c3nc(CN4CCCC(CN(CCN(C)C)C(=O)c5ccc6ccccc6c5)C4)cs3)c(=O)oc2c1` (stereo not drawn) [2C], the Ki at purified huBChE (setting [5]) is 0.0033 µM and 0.00327 µM; at purified huBChE (setting [6]), 0.0427 ± 0.0015 µM. In addition, in data set [2], the “solubility in aqueous buffers (in words)” value is “sufficient aqueous solubility”. For the same compound, on hBChE [3], the Kd was 0.0055 ± 0.0016 µM. Also, on hBChE [4], the “enhancement of fluorescence intensity on addition of huBChE” value is recorded as “approximately two-fold”. The IC50 on hBChE [1] is 0.088 µM. For the same compound, the remaining activity at 100 µM on huAChE was greater than 74%; at mAChE, 70%. In addition, the “concentration needed to achieve substantial inhibition of BChE” value at BChE in rat brain slices stood at 1 mM.
Consider `CCN(CC)c1ccc2cc(C(=O)NCCOCCOCCN(CC3CCCN(Cc4ccccc4)C3)S(=O)(=O)c3ccc4ccccc4c3)c(=O)oc2c1` (stereo not drawn) [3A], for which the results for the Ki at purified huBChE (setting [5]) and at purified huBChE (setting [6]) were 0.063 ± 0.0005 µM and 0.296 ± 0.002 µM, respectively. Moreover, in data set [2], the “solubility in aqueous buffers (in words)” value is listed as “poor solubility in aqueous buffers; also recorded: low solubility”. In addition, the IC50 on hBChE [1] was 0.06 µM. The remaining activity at 100 µM on huAChE turned out to be 94%; at mAChE, 93%.
In the case of `O=[N+]([O-])c1ccc(N2CCN(CCN(CC3CCCN(Cc4ccccc4)C3)S(=O)(=O)c3ccc4ccccc4c3)CC2)c2nonc12` (stereo not drawn) [3B], the Ki is 0.00463 ± 2e-05 µM at purified huBChE (setting [5]) and 0.0966 ± 0.002 µM at purified huBChE (setting [6]). Besides, in data set [2], the “solubility in aqueous buffers (in words)” value is on record as “improved solubility in aqueous solutions compared to 3A; also recorded: sufficient aqueous solubility”. Besides, the “enhancement of fluorescence intensity on addition of huBChE” value at hBChE [4] is “only marginally increased”. Besides, the IC50 on hBChE [1] was found to be 0.018 µM. Moreover, the values for the remaining activity at 100 µM at huAChE and on mAChE were 57% and 97%, respectively. For the same compound, at BChE in rat brain slices, the “concentration needed to achieve substantial inhibition of BChE” value is given as 1 mM.
As to `[N-]=[N+]=NCCOCCN(CC1CCCN(Cc2ccccc2)C1)S(=O)(=O)c1ccc2ccccc2c1` (stereo not drawn) [3C], on hBChE [1], the “huBChE inhibition (in words)” value is listed as “retained good inhibitory activity” and the IC50 amounted to 0.019 µM. For the same compound, the remaining activity at 100 µM on huAChE worked out at 84%. In addition, at mAChE, the remaining activity at 100 µM came to 94%.
For `O=[N+]([O-])c1ccc(N2CCN(Cc3cn(CCOCCN(CC4CCCN(Cc5ccccc5)C4)S(=O)(=O)c4ccc5ccccc5c4)nn3)CC2)c2nonc12` (stereo not drawn) [3D] the same measures were “substantial loss of inhibitory activity”, 0.214 µM, 98% and 100%.
